Assay results taken from EP0837859B1, “TETRAHYDROFURAN ANTIFUNGALS” (SCHERING CORPORATION, priority 1995, dated 1997).

Tested on: 11 strains of C. albicans and tropicalis
Experiment: in vitro antifungal activity in EMEM (geometric mean MIC)
Type: cell-based
Conditions: Candida albicans, read-out: geometric mean MICs

MIC: ≥ 0.01 µg/mL
SMILES: CC[C@@H]([C@H](C)O)n1ncn(-c2ccc(N3CCN(c4ccc(OC[C@H]5CC[C@](Cn6cncn6)(c6ccc(F)cc6F)O5)cc4)CC3)cc2)c1=O
